Data set [1] concerns isolated liver cells (1000×g cell fraction). As to the kind of experiment: Iron-dependent liver cell lipid peroxidation (LCLP). It is filed as cell-based. Conditions: SEM.
Data set [2] deals with Liver cells. The experiment in a line: Incorporation of labeled choline into phosphatidylcholine (PC biosynthesis) by liver cells with iron. Conditions: SEM. It is filed as cell-based. The text has this:
The study of effects oil liver cells was also considered based on evaluation of effect on increase in the incorporation of labeled choline into phosphatidylcholine (phosphatidylcholine biosynthesis) by liver cells. Vitamin E phosphate/phosphatidylcholine produced greater beneficial effects than either vitamin E phosphate or phosphatidylcholine.

The test system of data set [3] is male albino mice. The experiment in a line: Allyl alcohol-induced liver injury in male albino mice (SGPT). Format: in vivo. Conditions: allyl alcohol alone, single intraperitoneal dose 50 mg/kg, 4 hours; ± SEM. The protocol: Influence of vitamin E phosphate/phosphatidylcholine liposomes (see example 1) on Allyl alcohol-induced liver injury was evaluated in male albino mice.

Data set [4] concerns Liver cells. As to the kind of experiment: Phosphatidylcholine formation in liver cells dysfunctional due to ethanol exposure. Format: cell-based. The protocol: Liver cells which had become dysfunctional due to exposure to ethanol were incubated 24 hours with vitamin E phosphate/phosphatidylcholine liposomes. The pmoles of phosphatidylcholine formed per minute/mg protein was then measured with the following results: […]

Data set [5] relates to cultured liver cells. The experiment in a line: Reversal of ethanol damage in cultured liver cells (phosphatidylcholine biosynthesis). It is filed as cell-based. Conditions: 96 h, ± SEM. The protocol:
The use of vitamin E phosphate/phosphatidylcholine to effect reversal of damage from ethanol on liver cells was then studied. The cultured liver cells were incubated with 25 mM or 50 mM ethanol for 96 hours, at which time there is significant reduction in liver cell function (phosphatidylcholine biosynthesis). The effect of adding vitamin E phosphate/phosphatidylcholine after 72 hours was studied, and 24 hours later (96 hours after initial exposure to ethanol) values were obtained.

The mark [6] stands for this setting: 1 mM iron plus addition: PC 100 μM, VEP 50 μm, or combination VEP/PC.

For the compound `Cc1c(C)c2c(c(C)c1OP(=O)(O)O)CCC(C)(CCCC(C)CCCC(C)CCCC(C)C)O2` (centres unmarked) [VEP, vitamin E phosphate], in data set [1] (setting [6]), the “LCLP (liver cell lipid peroxidation)” value came out at 167 ± 3 % control. Further, in data set [2] (setting [6]), the PC biosynthesis was 145 ± 4 % control.
In the case of `C=CCO` [Allyl alcohol], the SGPT in data set [3] is on record as 330 ± 15 % of control.
For the compound phosphatidylcholine [PC], the “LCLP (liver cell lipid peroxidation)” value in data set [1] (setting [6]) is recorded as 281 ± 4 % control. Further, the PC biosynthesis in data set [2] (setting [6]) was determined as 167 ± 4 % control.
In the case of `[Fe]` [iron], the “LCLP (liver cell lipid peroxidation)” value in data set [1] (1 mM iron alone) was 357 ± 12 % control. This compound also had a PC biosynthesis in data set [2] (1 mM iron alone) of 254 ± 9 % control.
`CCO` [ethanol]: the phosphatidylcholine formed in data set [4] (cells exposed to ethanol (control 75)) is 25 pmoles per minute/mg protein; in data set [4] (cells exposed to ethanol, then incubated 24 hours in water), 27 pmoles per minute/mg protein. Moreover, the results for the “liver cell function (phosphatidylcholine biosynthesis)” value in data set [5] (25 mM ethanol alone) and in data set [5] (50 mM ethanol alone) were 38 ± 2 % control and 22 ± 1 % control, respectively.

(Values after patent US20060228395A1, “Vitamin E phosphate/phosphatidylcholine liposomes to protect from or ameliorate cell damage” (priority 2005, published 2006).)
